Source: paper PMC11868579 (Nature Communications, 2024)
Values joined by “and” are separate entries in the source; they are usually repeats but may differ in a detail not shown here. Equal entries are not always repeated.

Assays:
[1] = biological target: T1, eIF4E minor variant D127N (N127) (Homo sapiens, UniProt P06730, D127N); test: Isothermal titration calorimetry, eIF4E minor variant; format: binding; settings: for Kd: ITC; for Kd / LE (ligand efficiency): minor variant D127N
T1 construct: made in house; host or cells: E. coli BL21-CodonPlus (DE3)-RIPL
Experimental: ITC experiments were performed on either a MicroCal VP-ITC or a MicroCal Auto-ITC200 at 25 °C in a buffer comprising 50 mM HEPES, 100 mM NaCl, 1 mM TCEP and 5% DMSO at pH 7.5. Typical titrations on the MicroCal VP-ITC were performed using 17 × 16.4 µL injections with a 250 s spacing between each injection and with a stirring speed of 307 rpm. Typical titrations on the MicroCal Auto-ITC200 were performed using 12 × 3 µL injections with a 150 s spacing between each injection and with a stirring speed of 750 rpm. ITC data analyses were performed with Origin 7.0 software using the “One Set of Sites” model.

[2] = system: H1299 eIF4E-dTAG clones proteome; test: Global proteome profiling (DIA LC-MS/MS); format: cell-based, human; settings: 500 nM, 72 hr
Experimental: Cells (1 × 10^5 cells/ml) were lysed using SDS-free lysis and the lysate made up to 1 mL. Disulphide bounds were disrupted by reduction and alkylation. DTT was added to sample with a final concentration of 10 mM and incubated at 37 °C for 30 min. Iodoacetamide was then added to sample with a final concentration of 55 mM and incubated in the dark at room temperature for 30 min. The protein mixture was then enriched through a solid phase (SPE) C18 column. The C18 column was activated with 1 ml methanol at a rate of 3 drops/second, followed by 1 ml 0.1% formic acid to condition the column. The diluted protein mixture was loaded onto the column at 1 drop/sec, the column was washed with 3 ml 0.1% formic acid and enriched proteins were eluted with 800 μl 75% acetonitrile at a rate of 0.5 drops per second and the eluate was freeze-dried. The freeze-dried proteins were redissolved in 20 μl 50 mM ammonium bicarbonate and quantified according to the manufacturer’s instructions (Pierce Quantitative Fluorometric Peptide Assay cat# 23290). A small aliquot was removed for PAGE QC analysis on a 12% polyacrylamide gel. The remainder of the protein samples were digested with trypsin at a ratio of 1:20 for enzyme and proteins (w/w). The mixture was incubated for 14–16 h at 37 °C.
For DDA (Data Dependent Acquisition) library construction (Nano-LC-MS/MS) the dried peptide samples were reconstituted with mobile phase A (2% ACN, 0.1% FA), centrifuged at 20,000 g for 10 minutes, and the supernatant was taken for injection. Separation was carried out by a Thermo UltiMate 3000 UHPLC liquid chromatograph. […] The main parameters were set: ion source voltage was set to 1.9 kV, MS1 mass spectrometer scanning range was 350 ~ 1650 m/z; resolution was set to 120,000; maximal injection time (MIT) 90 ms; MS/MS collision type HCD, collision energy NCE 30; MS/MS resolution 30,000, MIT was auto mode, dynamic exclusion duration 120 seconds. The start m/z for MS/MS was fixed to auto mode. Precursor for MS/MS scan satisfied: charge range 2+ to 6 + , top 30 precursors with intensity over 2E4. AGC was: MS 300%, MS/MS 100%.
Peptides separated by liquid phase chromatography were ionized by a nanoESI source and then passed to an Orbitrap Exploris480 (Thermo Fisher Scientific, San Jose,CA) to acquire mass spectrometry data in DIA mode. The main parameters were set: ion source voltage was set to 1.9 kV, MS1 mass spectrometer scanning range was 400 ~ 1250 m/z; resolution was set to 120,000; maximal injection time (MIT) 90 ms; 400 ~ 1250 m/z was equally divided to 50 continuous windows MS/MS scan. MS/MS collision type HCD, collision energy NCE 30; MIT was auto mode. Fragment ions were scanned in Orbitrap, MS/MS resolution 30,000. AGC was: MS 300%, MS/MS 1000%.
DIA data was analysed using the iRT peptides for retention time calibration. Then, based on the target-decoy model applicable to SWATH-MS, false positive control was performed with FDR 1% to obtain significant quantitative results. MSstats was used for the statistical evaluation of significant differences in proteins or peptides from different samples. The core algorithm is linear mixed effect model that pre-processes the data according to the predefined comparison group, and then performed the significance test based on the model. Thereafter, differential protein screening was performed based on the fold change >2 and p-value < 0.05 as the criterion for the significant difference.

[3] = system: cap-dependent and cap-independent (IRES) protein synthesis; test: Bicistronic protein synthesis reporter in H1299 cells; format: cell-based, human; settings: H1299; 100 μM, 24 hr; normalisation not stated
Experimental: H1299 cells were transfected with a biscistronic vector using Lipofectamine 3000 transfection reagent (Fisher Scientific, cat#L3000008) for 24 hr and then treated with compounds for further 24 h. Luminescence was measured after 24 h of compound treatment using the Dual Glo luciferase reporter assays as above.

[4] = system: c-Myc-activity; test: c-Myc-regulated luciferase reporter in SW620 cells; format: cell-based, human; parameters: CMV, Average / c-Myc, Average: unit not given here; settings: for c-Myc, Average / CMV, Average: SW620; for c-Myc, Average: c-Myc-regulated firefly luciferase reporter; for CMV, Average: constitutive CMV promoter-regulated renilla luciferase reporter
Experimental: Luminescence was measured using the Dual-glo luciferase assay (mean ± SEM from 3 biological replicates). b SW620 cells were transfected with a c-Myc-regulated firefly luciferase expression reporter or a constitutive CMV promoter-regulated renilla luciferase reporter. Cells were treated for 24 hr with 1 or 10 µM compound 4 or the […] kinase inhibitor AZD8055 as positive control (mean ± SEM from 3 biological replicates). An ordinary one-way ANOVA with Tukey multiple comparisons test was performed comparing c-Myc-regulated firefly luciferase expression or CMV-regulated Renilla luciferase expression following the different treatments. For c-Myc-regulated firefly luciferase expression, all significant p values […]
were <0.0001. […]
Source data is located in the Supplementary Source Data file

[5] = system: MCL1 protein expression; test: Immunoblot of MCL1 in eIF4E-dTAG clones and rescue models; format: cell-based, human; settings: eIF4E-dTAG clones
Experimental: One sample t and Wilcoxon tests (two-sided), using 100% as hypothetical control value, were performed and compared with the control in each cell line. b, c Real-time cell growth measurements monitored every 4 h over a 6-day period. Cell confluency (%) was calculated using Incucyte Zoom software and (mean ± SEM n = 3 biological replicates). Ordinary one-way ANOVA with Tukey multiple comparisons test compared treatment with the control in each cell line. […] Vinculin was used as loading control. H1299 (PAR) cell lines were treated with 1 μM dTAG^V-1 only as qualitative control. Vinculin was used as loading control. […] Significant p-values (< 0.05) are shown on the plots and the source data is located in the Source Data file.
After seeding overnight in 6 well plates (Corning, cat#353046), cells were treated with compounds for the indicated times and concentration, harvested and the cell pellet lysed on ice in cell lysis buffer (Cell Signaling, cat#9803), supplemented with 1x Halt^TM protease inhibitor cocktail (Fisher Scientific, cat#78429) and cOmplete^TM protease inhibitor cocktail (Sigma-Aldrich, cat#11836153001) for 1 hr. Protein was quantified using BCA protein kit (Fisher Scientific, cat#23225). Western blot was performed using NuPAGE^TM 4–12% Bis-Tris gels (Fisher Scientific, cat#NP0336BOX) and transferred using the Invitrogen iBLOT^TM gel transfer device system (Fisher Scientific, Cat#IB21001). […] All primary antibodies were diluted (1:1000) in 5% BSA (Sigma-Aldrich, cat#A7906) in 1x TBS and 0.1% Tween 20 (Sigma-Aldrich, cat#P1379), except for vinculin (1:2000) that was diluted in casein blocker (Sigma-Aldrich, cat#1610782). This was followed by incubation with the secondary HRP-conjugated antibodies (anti-mouse HRP, Bio-rad, Watford, UK, cat#1705047; anti-rabbit HRP, Sigma-Aldrich, cat#NA934) in casein for 1 h at RT. ECL HRP substrate (SuperSignalTM West Pico, Fisher Scientific, cat#34578) was then added to detect protein targets by chemiluminescence and images acquired using the ChemiDocTM system (Bio-Rad). Quantitative densitometry analysis of protein bands was performed using Image J v1.53 software.

T1 sequence (P06730 36-217 D127N): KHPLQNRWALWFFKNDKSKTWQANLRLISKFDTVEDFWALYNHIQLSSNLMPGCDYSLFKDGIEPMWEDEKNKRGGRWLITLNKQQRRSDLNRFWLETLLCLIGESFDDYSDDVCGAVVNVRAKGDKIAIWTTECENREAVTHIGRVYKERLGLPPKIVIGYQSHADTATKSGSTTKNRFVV

**Q.** How did the Kd [1] turn out when `CC(O)c1ccc(-c2ccccc2F)cc1` (stereo not drawn) [Compound 3, 1-{2'-fluoro-[1,1'-biphenyl]-4-yl}ethan-1-ol] was run?
**A.** 20 µM

**Q.** And the improvement in affinity ([1]; compound 3 versus compound 1)?
**A.** 20 fold

**Q.** What about the “LE (ligand efficiency)” value [1] of the same compound?
**A.** 0.4 (kcal/mol)/heavy atom

**Q.** Which Kd [1] does the source give for `O=C(O)C1(c2ccc(Cl)cc2)CCCC1` [Compound 2, 1-(4-chlorophenyl)cyclopentane-1-carboxylic acid] here?
**A.** 7400 µM

**Q.** And the “LE (ligand efficiency)” value [1]?
**A.** 0.19 (kcal/mol)/heavy atom

**Q.** What does the source list for `CC[C@H](C(=O)N1CCCC[C@H]1C(=O)O[C@H](CCc1ccc(OC)c(OC)c1)c1ccccc1OCC(=O)NCCCCCCC(=O)N[C@H](C(=O)N1C[C@H](O)C[C@H]1C(=O)N[C@@H](C)c1ccc(-c2scnc2C)cc1)C(C)(C)C)c1cc(OC)c(OC)c(OC)c1` [dTAG-v1]?
**A.** Normalised signal intensity, A2M ([2]; H1299 C2-2 dTAG clone): 17.256; Normalised signal intensity, AAAS (first entry, r5) ([2]; H1299 C2-2 dTAG clone): 16.230; Normalised signal intensity, AAAS (second entry, r6) ([2]; H1299 C2-2 dTAG clone): 19.251; Normalised signal intensity, AACS ([2]; H1299 C2-2 dTAG clone): 16.229; Normalised signal intensity, A2M ([2]; H1299 C3-1 dTAG clone): 17.317; Normalised signal intensity, AAAS (first entry, r5) ([2]; H1299 C3-1 dTAG clone): 15.976; Normalised signal intensity, AAAS (second entry, r6) ([2]; H1299 C3-1 dTAG clone): 18.995; Normalised signal intensity, AACS ([2]; H1299 C3-1 dTAG clone): 16.150; Normalised signal intensity, A2M ([2]; H1299 N2-1 dTAG clone): 17.029; Normalised signal intensity, AAAS (first entry, r5) ([2]; H1299 N2-1 dTAG clone): 15.914; Normalised signal intensity, AAAS (second entry, r6) ([2]; H1299 N2-1 dTAG clone): 19.083; Normalised signal intensity, AACS ([2]; H1299 N2-1 dTAG clone): 15.496; Normalised signal intensity, A2M ([2]; H1299 N3-2 dTAG clone): 16.465; Normalised signal intensity, AAAS (first entry, r5) ([2]; H1299 N3-2 dTAG clone): 15.682; Normalised signal intensity, AAAS (second entry, r6) ([2]; H1299 N3-2 dTAG clone): 18.655; Normalised signal intensity, AACS ([2]; H1299 N3-2 dTAG clone): 16.041

**Q.** `C[C@@H]1C[C@@H]([C@H](O)CC2CC(=O)NC(=O)C2)C(=O)[C@@H](C)C1` [CHX, cycloheximide, reference compound] was tested. Which “protein synthesis reporter signal (cap-dependent luciferase / IRES luciferase), replicate values” [3] did it give?
**A.** 0.353 and 0.410 and 0.685 and 0.311 and 0.478 and 0.325

**Q.** For `COc1ccc(-c2ccc3c(N4CCOC[C@@H]4C)nc(N4CCOC[C@@H]4C)nc3n2)cc1CO` [AZD8055, reference compound], which “c-Myc, Average” value ([4]; 1μM) is on record?
**A.** 19.11

**Q.** What about the “CMV, Average” value ([4]; 1μM) of the same compound?
**A.** 86.61

**Q.** What about the “c-Myc, Average” value ([4]; 10μM) of the same compound?
**A.** 13.82

**Q.** What about the “CMV, Average” value ([4]; 10μM) of the same compound?
**A.** 130.75

**Q.** And the “activity in c-Myc reporter assay” value ([4]; SW620 cells, 1 or 10 µM, 24 hr)?
**A.** clearly inhibited activity

**Q.** How did the “MCL1 protein after treatment” value [5] turn out when `CC[C@H](C(=O)N1CCCC[C@H]1C(=O)O[C@H](CCc1ccc(OC)c(OC)c1)c1ccccc1OCC(=O)NCCCCCCC(=O)N[C@H](C(=O)N1C[C@@H](O)C[C@@H]1C(=O)N[C@@H](C)c1ccc(-c2scnc2C)cc1)C(C)(C)C)c1cc(OC)c(OC)c(OC)c1` [neg-dTAG^V-1, reference compound] was run?
**A.** Loss of MCL1 protein was not observed

**Q.** Which results are given for `Oc1cccc(-c2ccccc2)c1` [Compound 1, [1,1'-biphenyl]-3-ol]?
**A.** Kd [1]: 400 µM; LE (ligand efficiency) [1]: 0.36 (kcal/mol)/heavy atom
